Measured values from the supplement of paper PMC11061612.

Legend:
Trametinib = compound: CC(=O)Nc1cccc(-n2c(=O)n(C3CC3)c(=O)c3c(Nc4ccc(I)cc4F)n(C)c(=O)c(C)c32)c1 [Trametinib]; details: max 1 µM
Procedure, shortened: (§1)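 Cancer cell lines were seeded into 1536-well plates in 7.5 μl medium (DMEM/F12 or RPMI, 10% FBS), held 24 hours at 37°C and 5% CO2, and dosed for 72 hours with final DMSO typically 0.2%. Luminescence from CellTiter-Glo 2.0, scaled between blank-well and DMSO-well means, served as viability. The single-agent IC50 was obtained from dose-response fits with a non-linear mixed effects model, each fit being a two-parameter logistic curve.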

Prexasertib = compound: COc1cccc(OCCCN)c1-c1cc(Nc2cnc(C#N)cn2)n[nH]1 [Prexasertib]; details: max 1 µM
Procedure, shortened: as §1

Doxorubicin = compound: COc1cccc2c1C(=O)c1c(O)c3c(c(O)c1C2=O)C[C@@](O)(C(=O)CO)C[C@@H]3O[C@H]1C[C@H](N)[C@H](O)[C@H](C)O1 [Doxorubicin]; details: max 1 µM
Procedure, shortened: as §1

5-Fluorouracil = compound: O=c1[nH]cc(F)c(=O)[nH]1 [5-Fluorouracil]; details: max 20 µM
Procedure, shortened: as §1

Lapatinib = compound: CS(=O)(=O)CCNCc1ccc(-c2ccc3ncnc(Nc4ccc(OCc5cccc(F)c5)c(Cl)c4)c3c2)o1 [Lapatinib]; details: max 10 µM
Procedure, shortened: as §1

Selumetinib = compound: Cn1cnc2c(F)c(Nc3ccc(Br)cc3Cl)c(C(=O)NOCCO)cc21 [Selumetinib]; details: max 10 µM
Procedure, shortened: as §1

Gefitinib = compound: COc1cc2ncnc(Nc3ccc(F)c(Cl)c3)c2cc1OCCCN1CCOCC1 [Gefitinib]; details: max 10 µM
Procedure, shortened: as §1

AZD1390 = compound: CC(C)n1c(=O)n(C)c2cnc3cc(F)c(-c4ccc(OCCCN5CCCCC5)nc4)cc3c21 [AZD1390]; details: max 0.3 µM
Procedure, shortened: as §1

MK-2206 = compound: NC1(c2ccc(-c3nc4ccn5c(=O)[nH]nc5c4cc3-c3ccccc3)cc2)CCC1 [MK-2206]; details: max 10 µM
Procedure, shortened: as §1

Venetoclax = compound: CC1(C)CCC(CN2CCN(c3ccc(C(=O)NS(=O)(=O)c4ccc(NCC5CCOCC5)c([N+](=O)[O-])c4)c(Oc4cnc5[nH]ccc5c4)c3)CC2)=C(c2ccc(Cl)cc2)C1 [Venetoclax]; details: max 1 µM
Procedure, shortened: as §1

Crizotinib = compound: C[C@@H](Oc1cc(-c2cnn(C3CCNCC3)c2)cnc1N)c1c(Cl)ccc(F)c1Cl [Crizotinib]; details: max 10 µM
Procedure, shortened: as §1

AZD8186 = compound: C[C@@H](Nc1cc(F)cc(F)c1)c1cc(C(=O)N(C)C)cc2c(=O)cc(N3CCOCC3)oc12 [AZD8186]; details: max 10 µM
Procedure, shortened: as §1

AZD7648 = compound: Cc1cc2ncnn2cc1Nc1ncc2c(n1)n(C1CCOCC1)c(=O)n2C [AZD7648]; details: max 10 µM
Procedure, shortened: as §1

SRA737 = compound: N#Cc1cnc(Nc2cc(NC[C@H]3CNCCO3)c(C(F)(F)F)cn2)cn1 [SRA737]; details: max 10 µM
Procedure, shortened: as §1

AZD0156 = compound: CN(C)CCCOc1ccc(-c2ccc3ncc4c(c3c2)n(C2CCOCC2)c(=O)n4C)cn1 [AZD0156]; details: max 3 µM
Procedure, shortened: as §1

AZD1775 = compound: C=CCn1c(=O)c2cnc(Nc3ccc(N4CCN(C)CC4)cc3)nc2n1-c1cccc(C(C)(C)O)n1 [AZD1775]; details: max 3 µM
Procedure, shortened: as §1

AZD4320 = compound: CN(CC[C@H](CSC1=CC=CC=C1)NC2=C(C=C(C=C2)S(=O)(=O)NC(=O)C3=CC=C(C=C3)N4CCC(CC4)[C@H](C5=CC=CC=C5C6=CC=C(C=C6)Cl)O)S(=O)(=O)C(F)(F)F)CCO [AZD4320]; details: max 1 µM
Procedure, shortened: as §1

[1] = compound: O=C(Nc1ccc2[nH]nc(-c3ccncc3)c2c1)[C@@H]1CCN(CC(=O)N2CCN(c3ccc(-c4ncccn4)cc3)CC2)C1; details: max 5 µM
Procedure, shortened: as §1

SN-38 = compound: CCc1c2c(nc3ccc(O)cc13)-c1cc3c(c(=O)n1C2)COC(=O)[C@]3(O)CC [SN-38]; details: max 0.3 µM
Procedure, shortened: as §1

Taselisib = compound: Cc1nc(-c2cn3c(n2)-c2ccc(-c4cnn(C(C)(C)C(N)=O)c4)cc2OCC3)n(C(C)C)n1 [Taselisib]; details: max 10 µM
Procedure, shortened: as §1

Paclitaxel = compound: CC(=O)O[C@H]1C(=O)[C@@]2(C)[C@H]([C@H](OC(=O)c3ccccc3)[C@]3(O)C[C@H](OC(=O)[C@H](O)[C@@H](NC(=O)c4ccccc4)c4ccccc4)C(C)=C1C3(C)C)[C@]1(OC(C)=O)CO[C@@H]1C[C@@H]2O [Paclitaxel]; details: max 3 µM
Procedure, shortened: as §1

Carboplatin = compound: C1CC(C1)(C(=O)[O-])C(=O)[O-].N.N.[Pt+2] [Carboplatin]; details: max 10 µM
Procedure, shortened: as §1

AZD6738 = compound: C[C@@H]1COCCN1C2=NC(=NC(=C2)C3(CC3)[S@](=N)(=O)C)C4=C5C=CNC5=NC=C4 [AZD6738]; details: max 10 µM
Procedure, shortened: as §1

Etoposide = compound: COc1cc([C@@H]2c3cc4c(cc3[C@@H](O[C@@H]3O[C@@H]5CO[C@@H](C)O[C@H]5[C@H](O)[C@H]3O)[C@H]3COC(=O)[C@H]23)OCO4)cc(OC)c1O [Etoposide]; details: max 10 µM
Procedure, shortened: as §1

Alisertib = compound: COc1cc(Nc2ncc3c(n2)-c2ccc(Cl)cc2C(c2c(F)cccc2OC)=NC3)ccc1C(=O)O [Alisertib]; details: max 10 µM
Procedure, shortened: as §1

AZD5991 = compound: Cc1c2c(nn1C)CSCc1cc(n(C)n1)CSc1cc(c3ccccc3c1)OCCCc1c(C(=O)O)n(C)c3c-2c(Cl)ccc13 [AZD5991]; details: max 1 µM
Procedure, shortened: as §1

Olaparib = compound: O=C(c1cc(Cc2n[nH]c(=O)c3ccccc23)ccc1F)N1CCN(C(=O)C2CC2)CC1 [Olaparib]; details: max 10 µM
Procedure, shortened: as §1

Dasatinib = compound: CC1=C(C(=CC=C1)Cl)NC(=O)C2=CN=C(S2)NC3=CC(=NC(=N3)C)N4CCN(CC4)CCO [Dasatinib]; details: max 2 µM
Procedure, shortened: as §1

AZD5153 = compound: COc1nnc2ccc(N3CCC(c4ccc(OCCN5CCN(C)C(=O)[C@H]5C)cc4)CC3)nn12 [AZD5153]; details: max 1 µM
Procedure, shortened: as §1

SG3199 = compound: CC1=CN2[C@@H](C1)C=NC3=CC(=C(C=C3C2=O)OC)OCCCCCOC4=C(C=C5C(=C4)N=C[C@@H]6CC(=CN6C5=O)C)OC [SG3199]; details: max 0.001 µM
Procedure, shortened: as §1

Gemcitabine = compound: Nc1ccn([C@@H]2O[C@H](CO)[C@@H](O)C2(F)F)c(=O)n1 [Gemcitabine]; details: max 0.3 µM
Procedure, shortened: as §1

Savolitinib = compound: C[C@@H](c1ccc2nccn2c1)n1nnc2ncc(-c3cnn(C)c3)nc21 [Savolitinib]; details: max 1 µM
Procedure, shortened: as §1

AZD5363 = compound: C1CN(CCC1(C(=O)N[C@@H](CCO)C2=CC=C(C=C2)Cl)N)C3=NC=NC4=C3C=CN4 [AZD5363]; details: max 10 µM
Procedure, shortened: as §1

Palbociclib = compound: CC(=O)c1c(C)c2cnc(Nc3ccc(N4CCNCC4)cn3)nc2n(C2CCCC2)c1=O [Palbociclib]; details: max 10 µM
Procedure, shortened: as §1

AZD2811 = compound: CCN(CCO)CCCOc1ccc2c(Nc3cc(CC(=O)Nc4cccc(F)c4)[nH]n3)ncnc2c1 [AZD2811]; details: max 1 µM
Procedure, shortened: as §1

Row | Cell Line | IC50, cell viability 72 h (Trametinib) [nM] | IC50, cell viability 72 h (Prexasertib) [nM] | IC50, cell viability 72 h (Doxorubicin) [nM] | IC50, cell viability 72 h (5-Fluorouracil) [nM] | IC50, cell viability 72 h (Lapatinib) [nM] | IC50, cell viability 72 h (Selumetinib) [nM] | IC50, cell viability 72 h (Gefitinib) [nM] | IC50, cell viability 72 h (AZD1390) [nM] | IC50, cell viability 72 h (MK-2206) [nM] | IC50, cell viability 72 h (Venetoclax) [nM] | IC50, cell viability 72 h (Crizotinib) [nM] | IC50, cell viability 72 h (AZD8186) [nM] | IC50, cell viability 72 h (AZD7648) [nM] | IC50, cell viability 72 h (SRA737) [nM] | IC50, cell viability 72 h (AZD0156) [nM] | IC50, cell viability 72 h (AZD1775) [nM] | IC50, cell viability 72 h (AZD4320) [nM] | IC50, cell viability 72 h [1] [nM] | IC50, cell viability 72 h (SN-38) [nM] | IC50, cell viability 72 h (Taselisib) [nM] | IC50, cell viability 72 h (Paclitaxel) [nM] | IC50, cell viability 72 h (Carboplatin) [nM] | IC50, cell viability 72 h (AZD6738) [nM] | IC50, cell viability 72 h (Etoposide) [nM] | IC50, cell viability 72 h (Alisertib) [nM] | IC50, cell viability 72 h (AZD5991) [nM] | IC50, cell viability 72 h (Olaparib) [nM] | IC50, cell viability 72 h (Dasatinib) [nM] | IC50, cell viability 72 h (AZD5153) [nM] | IC50, cell viability 72 h (SG3199) [nM] | IC50, cell viability 72 h (Gemcitabine) [nM] | IC50, cell viability 72 h (Savolitinib) [nM] | IC50, cell viability 72 h (AZD5363) [nM] | IC50, cell viability 72 h (Palbociclib) [nM] | IC50, cell viability 72 h (AZD2811) [nM]
1 | HARA (Squamous Cell Lung Carcinoma) | 858 | 13.9 | 577 | 18300 | 7690 | > 10000 | > 10000 | > 300 | > 10000 | > 1000 | > 10000 | > 10000 | > 10000 | 1000 | > 3000 | 207 | > 1000 | 3840 | 44.5 | 2150 | 3.63 | > 10000 | 1730 | 9590 | 3820 | > 1000 | > 10000 | > 2000 | 223 | > 1 | 56 | > 1000 | 9160 | 7420 | > 1000
2 | HDLM-2 (Hodgkin's Lymphoma) | > 1000 | 504 | > 1000 | > 20000 | > 10000 | > 10000 | > 10000 | > 300 | > 10000 | > 1000 | > 10000 | > 10000 | > 10000 | > 10000 | > 3000 | 387 | 82.6 | > 5000 | 206 | > 10000 | 27.4 | > 10000 | > 10000 | 6080 | > 10000 | 119 | > 10000 | > 2000 | 936 | > 1 | > 300 | > 1000 | > 10000 | > 10000 | > 1000
